Experimental findings from patent US20260231954A1, “PESTICIDAL ENZYMES FOR USE ON NEMATODES, INSECTS, AND MOLLUSKS” (priority 2023, published 2026) are described below.

The subject of assay [1] is Btk resistant Diamondback moth. Briefly: Diet-surface overlay (DSO) bioassay on Btk resistant Diamondback moth. Format: in vivo, Plutella xylostella. Particulars: number of individuals, n = 32, 7 days. Here is the method:
(§1) Diet-surface overlay bioassays are conducted with artificial diet mixes without antibiotics in 1.5 cm^2 cell bioassay trays(s). Artificial diets are commercially available from Southland Products Inc. Diets were prepared by dispersing 0.5 mL of molten diet to each 1.5 cm^2 cell. After solidification, 0.1 mL enzyme treatments were dispersed on top of diet in each cell and the tray was gently rocked in an orbital shaker to spread the liquid uniformly over the diet surface. Trays were placed under clean airflow until the surface of each cell was uniformly dried. One or two 16-cell sections were used per treatment (the number in larvae treated was 16 or 32).
(§2) One healthy first instar larva was placed into each treatment cell, each 16-cell section was covered with a re-sealable lid and incubated at 27° C. and light-dark period of 16:8 hrs. After 7 days, and according to the species, the number of individuals in the following developmental categories was recorded.
(§3) Diamondback moth (Plutella xylostella): Dead Larva (lack of movement), Larva Stage I (≤50% relative size), Larva Stage II (100% relative size, full size), Early Pupa (light green color), Late Pupa (light-dark brown color), and Adult.
(§4) Negative/untreated controls were treated with filtered water and positive controls were treated with lethal doses of Bacillus thuringiensis subsp. Kurstaki (Btk) spores at 1000 ppm.
However, both neutral proteases reduced the number of individuals reaching adult stage.
The effect of lipase (10× enzyme rate) and free lipases were tested on a Diamondback Moth Btk resistant strain. Free Lipases from Burkholderia cepacia (Bc) and Pseudomonas fluorescens (Pf) were tested along with Lipase (SEQ ID NO: 76) and the results are shown below in Table 45.

Assay [2] relates to Diamondback moth (Plutella xylostella). In words: Diet-surface overlay (DSO) bioassay on Diamondback moth. Format: in vivo. To be noted: number of individuals, n = 16. The protocol:
as §1, §2, §3, §4

In assay [3] the test system is soybean cyst nematode (SCN, Heterodera glycines). In words: Soybean cyst nematode reproduction on soybean after seed treatment, controlled environment (cysts per gram of root tissue or per plant). In kind it is in vivo.
Assay [4] concerns soybean cyst nematode (SCN). In words: SCN reproduction after application of enzyme or recombinant strain to soil. In kind it is in vivo, Heterodera glycines. Particulars: Table 33; for % Comparison to Control: first figure, water control = 100%. The protocol: To determine the efficacy of nematicidal enzymes applied to soil, a controlled environment trial was performed with 7-day old soybean plants (variety 2830E3) grown in pots. Enzymes were produced as described in Example 2. Prior to inoculation, 0.5 mL of neutral protease (SEQ ID NO: 127), esterase B (SEQ ID NO: 89), or chitinase 19F (SEQ ID NO: 182) free enzyme solution was applied to the soil around the base of each plant, or 0.5 mL of water was applied for the control (30 plants per treatment). Then, hatched SCN juveniles were applied to the soil around each plant as described in Example 2, and three weeks later, cysts per gram of root tissue was determined as described in Example 2. The data was analyzed as in Example 2 and appears in Tables 33 and 34.
To determine the efficacy of recombinant strains applied to soil, a controlled environment trial was performed as described in Example 18 above (Reduction of soybean cyst nematode reproduction by enzymes applied to soil), with the exception that a recombinant strain expressing neutral protease (SEQ ID NO: 127) was applied instead of a free enzyme solution. The recombinant strain was produced as in Example 3, and the treatment applied to soil as a whole cell broth.

The subject of a further assay is Meloidogyne incognita. In words: Root gall index of soybeans inoculated with Meloidogyne incognita after seed treatment (greenhouse). Particulars: for % Comparison to Control: first figure, base seed treatment control = 100%. Format: in vivo. The protocol: Nematicidal neutral protease (SEQ ID NO: 127) was produced by fermentation in Bacillus subtilis. The enzyme was cloned into Bacillus expression plasmid p1797 with isopropyl β-d-1-thiogalactopyranoside (IPTG)-inducible expression. The plasmid was transformed into B. subtilis, and this strain was grown in rich media until an optical density (OD) of 0.2-0.5 was reached. Then, enzyme expression was induced by addition of 1 mM IPTG. Following the culture harvest, cells were removed by filtration through a […] filter. Culture filtrate containing secreted protease was then used for seed treatment. Bacillus subtilis fermentation filtrate expressing neutral protease was mixed directly into a seed treatment slurry containing colorant and Peridiam® 1006 […] at a rate of 2 fl oz per unit of seed and coated onto Bossier variety soybean seed.
To investigate the effects of neutral protease on galling due to root knot nematode infestation, treated seeds were planted in soil in cone-tainers in a greenhouse. Seven days after planting, each cone-tainer was inoculated with 1250 eggs from the Dick Meloidogyne incognita population. Eight weeks post-inoculation, roots were excavated and washed. Root galling was visually rated on a gall index (GI) scale of 1-5 (1=<10% GI; 2=11-20%, 3=21-30%, 4=31-40%, 5=>40% GI). Fifteen plants were evaluated per treatment and their average root gall ratings were recorded.

On to “Neutral protease (SEQ ID NO: 127): Bacillus sp. B16 neutral protease produced by fermentation in Bacillus subtilis; culture filtrate containing the secreted enzyme”, for which the “Dead Larva” value in assay [1] (Table 42, proteases at 10x rate) is on record as 4; in assay [2] (Table 41, proteases, after 7 days, rate in U/mL diet column) it was 2. For the same substance, the Adult in assay [1] (Table 42) stood at 0; in assay [2] (Table 41, 7 days), 0. Moreover, the “Early Pupa” value in assay [1] (Table 42) was 6; in assay [2] (Table 41, 7 days), 8. In addition, the “Larva Stage I” value in assay [1] (Table 42) was 0; in assay [2] (Table 41, 7 days), 0. Also, the “Larva Stage II” value in assay [1] (Table 42) is 0; in assay [2] (Table 41, 7 days) it was 0. Moreover, the “Late Pupa” value is 22 in assay [1] (Table 42) and 6 in assay [2] (Table 41, 7 days). Also, the “Average cysts per g of root tissue” value is 20.1 cysts per g of root tissue in assay [3] (Table 11, free enzyme seed treatment 2 fl. oz. per unit of seed (ILEVO 0.15 mg active ingredient per seed), soybean P18A98X, 3 weeks after inoculation); 40.3 cysts per g of root tissue in assay [3] (Table 14, seed treated with whole cell broth, soybean P18A98X); 208.8 cysts per g of root tissue in assay [3] (Table 38, liquid formulation 2 fl oz/unit, ILEVO positive control, soybean 2830E3); 35.7 cysts per g of root tissue in assay [4] (free enzyme 0.5 mL/plant to soil, soybean 2830E3, 3 weeks). The “% Comparison to Control (figure in parentheses)” value in assay [3] (Table 38, change vs base control, liquid 2 fl oz/unit, ILEVO) is given as −42%; in assay [4] (change vs water control), −32%; with Meloidogyne incognita (Table 26, change vs base control), −26%. In addition, the “% Comparison to Control” value in assay [4] is on record as “reduced SCN reproduction”; in assay [4] (listed as Neutral protease free enzyme (SEQ ID NO: 127)), 68%; in the assay with Meloidogyne incognita (Table 26) it was “reduction of average visual gall rating”; in the assay on Meloidogyne incognita (Table 26, listed as Neutral protease seed treatment (SEQ ID NO: 127)), 74%. Also, the “Average root gall rating” value in the assay on Meloidogyne incognita (gall index scale of 1-5, seed treatment 2 fl oz per unit of seed, Bossier soybean, 8 weeks post-inoculation, 15 plants) is 3.5.
